Patent EP3771715A1, “CRYSTALLINE FORMS OF BARICITINIB” (Zaklady Farmaceutyczne "Polpharma" S.A., priority 2019, dated 2021)

How the values were obtained:
Assay type in all cases: physicochemical
[1] = Crystalline stability against humidity (XRPD); conditions: no conversion into another crystalline form by XRPD
Method: Powder X-ray diffraction was performed with a Rigaku MiniFlex 600 diffractometer with Bragg-Brentano geometry CuKa radiation and D/teX Ultra Detector. The powder X-ray diffraction patterns were recorded at a tube voltage of 40kV and a tube current of 15 mA, applying a step size of 0.01° and speed 6.0°/min with the angular range 3-36° at ambient conditions.
A test for crystalline stability against humidity can be performed as follows: The sample is exposed to a relative humidity of 75% (±5%) at 40°C (±2°C) for 4 weeks. The expression "crystalline stability" means that no conversion into another crystalline form occurs, as determined by XRPD.
The equilibrium relative humidity of a sample is measured by determining the relative humidity in % in the air above a test sample, after establishment of a humidity equilibrium in a closed/open system at a constant temperature.
A test for crystalline stability against humidity has been performed as follows: The sample is exposed to a relative humidity of 75% (±5%) at 40°C(±2°C) for 4 weeks. The expression "crystalline stability" means that no conversion into another crystalline form occurs, as determined by XRPD.

[2] = Chemical stability under accelerated ICH storage conditions (HPLC); conditions: for Impurities (HPLC % a/a) RRT 1.40 / Impurities (HPLC % a/a) RRT 1.70 / Impurities (HPLC % a/a) RRT 2.20 / Impurities (HPLC % a/a) RRT 1.30 / Impurities (HPLC % a/a) RRT 1.41: 40°C, 75 ± 5% RH
Method: Purity and assay analysis was carried out using High Performance Liquid Chromatograph equipped with PDA detector. The analysis was conducted using Octadecyl silane (ODA or C18) chemically bonded to porous silica column, at a temperature of 40°C. The mobile phases was acetonitrile and 0.1% (v/v) ortho-phosphoric acid in water used in gradient.
Chemical stability study of the new crystalline forms of baricitinib i.e. PPH form I and PPH form II was performed under accelerated ICH storage conditions (40°C, 75±5% relative humidity). Samples were taken periodically (0 (start), after 1, 2, and 4 weeks) and analyzed by HPLC. Table 4 : HPLC purity of PPH form I of baricitinib

[3] = Hygroscopicity (statement, no method described)

CCS(=O)(=O)N1CC(CC#N)(n2cc(-c3ncnc4[nH]ccc34)cn2)C1 [PPH form II, {1-(Ethylsulfonyl)-3-[4-(7H-pyrrolo[2,3-d]pyrimidin-4-yl)-1H-pyrazol-1-yl]-3-azetidinyl}acetonitrile]
Crystalline stability study 40°C, 75 ± 5% RH After 4 weeks ([1]; listed as PPH form II (Example 4)): Stable
Crystalline stability study 40°C, 75 ± 5% RH After 4 weeks ([1]; listed as PPH form II of baricitinib): stable
Impurities (HPLC % a/a) RRT 1.40 ([2]; week 0): 0.03 % a/a
Impurities (HPLC % a/a) RRT 1.70 ([2]; week 0): 0.17 % a/a
Impurities (HPLC % a/a) RRT 2.20 ([2]; week 0): 0.15 % a/a
Impurities (HPLC % a/a) RRT 1.40 ([2]; week 1): 0.03 % a/a
Impurities (HPLC % a/a) RRT 1.70 ([2]; week 1): 0.17 % a/a
Impurities (HPLC % a/a) RRT 2.20 ([2]; week 1): 0.15 % a/a
Impurities (HPLC % a/a) RRT 1.40 ([2]; week 2): 0.03 % a/a
Impurities (HPLC % a/a) RRT 1.70 ([2]; week 2): 0.17 % a/a
Impurities (HPLC % a/a) RRT 2.20 ([2]; week 2): 0.15 % a/a
Impurities (HPLC % a/a) RRT 1.40 ([2]; week 4): 0.03 % a/a
Impurities (HPLC % a/a) RRT 1.70 ([2]; week 4): 0.17 % a/a
Impurities (HPLC % a/a) RRT 2.20 ([2]; week 4): 0.15 % a/a

CCS(=O)(=O)N1CC(CC#N)(n2cc(-c3ncnc4[nH]ccc34)cn2)C1 [PPH form I, {1-(Ethylsulfonyl)-3-[4-(7H-pyrrolo[2,3-d]pyrimidin-4-yl)-1H-pyrazol-1-yl]-3-azetidinyl}acetonitrile]
Crystalline stability study 40°C, 75 ± 5% RH After 1 week ([1]; after 1 week): Stable
Crystalline stability study 40°C, 75 ± 5% RH After 4 weeks [1]: Stable
Impurities (HPLC % a/a) RRT 1.30 ([2]; week 0): 0.01 % a/a
Impurities (HPLC % a/a) RRT 1.41 ([2]; week 0): 0.03 % a/a
Impurities (HPLC % a/a) RRT 1.30 ([2]; week 1): 0.01 % a/a
Impurities (HPLC % a/a) RRT 1.41 ([2]; week 1): 0.03 % a/a
Impurities (HPLC % a/a) RRT 1.30 ([2]; week 2): 0.01 % a/a
Impurities (HPLC % a/a) RRT 1.41 ([2]; week 2): 0.03 % a/a
Impurities (HPLC % a/a) RRT 1.30 ([2]; week 4): 0.01 % a/a
Impurities (HPLC % a/a) RRT 1.41 ([2]; week 4): 0.03 % a/a
Chemical stability (HPLC results) ([2]; during 0, 1, 2 and 4 weeks at 40°C, 75 ± 5% relative humidity): stable
Hygroscopicity [3]: substantially non-hygroscopic
